Experimental data reported in patent publication US20240376154A1, “BIS-INTERCALATING PEPTIDES, CONJUGATES AND METHODS OF USE” (ZYMEWORKS BC INC., priority 2023, published 2024).

How the values were obtained:
[1] = system: tumour cells (at least 4 of a panel of ovarian, breast, lung, pancreatic, placenta, colon cell lines); experiment: In vitro cytotoxicity (cell proliferation, CellTiter-Glo), average over tumour cell line panel; assay type: cell-based; conditions: average pIC50 on all cell lines tested; 5 nights incubation; CellTiter-Glo
Protocol: The ability of representative compounds of Formula I to inhibit proliferation of tumour cells in vitro was evaluated in at least 4 of the following cell lines: OVCAR-3 (ovarian, ATCC), SKOV-3 (ovarian, ATCC), IGROV-1 (ovarian, national research council of Canada (NRC)), OV-90 (ovarian, ATCC), OVKATE (Ovarian, Japanese Collection of Research Bioresources (JCRB) (JCRB1044)), JIMT-1 (breast, NRC), SK-BR-3 (breast, ATCC), T-47D (breast, ATCC), ZR-75-1 (breast, ATCC), MDA-MB-468 (breast, AddexBio), BT-20 (breast, ATCC), BT-474 (breast, NRC), MDA-MB-175 (breast, AddexBio), A549 (lung, collaborator), NCI-H226 (lung, NRC), NCI-H661 (lung, NRC), NCI-H1573 (lung, ATCC). NCI-H1563 (lung, ATCC), H358 (lung, collaborator), EBC-1 (lung, Xenotech), H1299 (lung, NRC), NCI-H292 (lung, ATCC), HCC817 (lung, ATCC), NCI-H441 (lung, ATCC), MIA-PaCa-2 (pancreatic, ATCC), BxPC-3 (pancreatic, ATCC), Panc-1 (pancreatic, ATCC), AsPC-1 (pancreatic, ATCC), JEG-3 (placenta, AddexBio), HT-29 (colon, ATCC).
Cells were cultured per vendor instructions and in log-phase growth were detached by brief incubation in 0.05% trypsin, then resuspended in respective culturing media at 20,000 cells/mL (except for ZR-75 cells, which were resuspended at 10,000 cells/mL). 50 μL/well (˜1000 cells/well) were transferred to sterile tissue culture (TC)-treated 384-well plates (ThermoFisher Scientific, Catalogue #164610) and incubated overnight at 37° C. with 5% CO2 to allow the cells to adhere to the plate surface. The next day, in a sterile, V-bottom, 96-well plate, test articles were titrated 1:3 in complete growth medium, creating a 10-point dose response titration with compounds at 3.5-times the desired final concentration. 20 μL from each dilution were added to the 384-well plate containing the seeded cells and these plates were incubated at 37° C. with 5% CO2 for 5 nights. Cell viability was quantified by first incubating with 15 μL/well of CellTiter-Glo® (Promega, Catalogue #G7572) for 30 minutes, then measuring luminescence with a microplate luminometer (BioTek® Synergy™ H1 Microplate Reader). IC50 values were determined by GraphPad Prism (GraphPad Software, San Diego, CA).
The results are presented in Table 7.1 and discussed in Example 7. Table 7.1 presents the results as average pIC50 values. pIC50=−log (IC50), thus, for example, pIC50=9 is equivalent to IC50=1 nM, and pIC50=6 is equivalent to IC50=1 μM.

[2] = Lipophilicity by experimental HPLC retention time; assay type: physicochemical; conditions: HPLC retention time as measure of lipophilicity; C18, 10 to 90% CH3CN/H2O with 0.1% FA over 25 min
Protocol: The ability to kill neighboring cells (i.e. bystander effect) is an important property for ADC payloads. For a payload comprising a compound of Formula I to be capable of bystander killing, membrane permeability (or transport) is required and the ability of compounds of Formula I to cross cell membranes and exert a cytotoxic effect was expected to be heavily influenced by lipophilicity.
Compounds were analyzed using an Agilent 1260 HPLC (Agilent Technologies, Inc., Santa Clara, CA) equipped with a Diode array detector and using a Phenomenex Kinetex EVO C18 150×4.6, 2.6 μm column (Phenomenex, Torrance, CA), eluting with 10 to 90% CH3CN/H2O with 0.1% FA over 25 min.

| SMILES | pIC50 (average) [1] | HPLC [2] [min] |
| --- | --- | --- |
| CCN1C(=O)CN(C)C(=O)CNC(=O)[C@@H]2CCCCN2C(=O)[C@H](NC(=O)c2nc3ccccc3cc2O)CNC(=O)[C@H](C(C)C)N(CC)C(=O)CN(C)C(=O)CNC(=O)[C@@H]2CCCCN2C(=O)[C@H](NC(=O)c2nc3ccccc3cc2O)CNC(=O)[C@@H]1C(C)C [Compound 147, N,N′-((7R,11S,19aS,26R,30S,38aS)-12,31-diethyl-11,30-diisopropyl-15,34-dimethyl-6,10,13,16,19,25,29,32,35,38-decaoxohexatriacontahydro-2H,6H-dipyrido[1,2-a:1′,2′-q][1,4,7,10,13,17,20,23,26,29]decaazacyclodotriacontine-7,26-diyl)bis(3-hydroxyquinoline-2-carboxamide)] | 8.5 | 17.9 |
| CC(C)[C@H]1C(=O)NC[C@@H](NC(=O)c2nc3ccccc3cc2O)C(=O)N2CCCC[C@H]2C(=O)NCC(=O)N(C)CC(=O)N(C)C2(CC2)C(=O)NC[C@@H](NC(=O)c2nc3ccccc3cc2O)C(=O)N2CCCC[C@H]2C(=O)NCC(=O)N(C)CC(=O)N1C [Compound 109, N,N′-((7′R,19a'S,26′R,30'S,38a'S)-30′-isopropyl-12′,15′,31′,34′-tetramethyl-6′,10′,13′,16′,19′,25′,29′,32′,35′,38′-decaoxotetratriacontahydro-2′H,6′H,12′H-spiro[cyclopropane-1,11′-dipyrido[1,2-a:1′,2′-q][1,4,7,10,13,17,20,23,26,29]decaazacyclodotriacontine]-7′,26′-diyl)bis(3-hydroxyquinoline-2-carboxamide)] | 7.77 | 15.4 |
| CN1CC(=O)N(C)[C@@H](C2CCCCC2)C(=O)NC[C@@H](NC(=O)c2nc3ccccc3cc2O)C(=O)N2CCCC[C@H]2C(=O)NCC(=O)N(C)CC(=O)N(C)[C@@H](C2CCCCC2)C(=O)NC[C@@H](NC(=O)c2nc3ccccc3cc2O)C(=O)N2CCCC[C@H]2C(=O)NCC1=O [Compound 162, N,N′-((7R,11S,19aS,26R,30S,38aS)-11,30-dicyclohexyl-12,15,31,34-tetramethyl-6,10,13,16,19,25,29,32,35,38-decaoxohexatriacontahydro-2H,6H-dipyrido[1,2-a:1′,2′-q][1,4,7,10,13,17,20,23,26,29]decaazacyclodotriacontine-7,26-diyl)bis(3-hydroxyquinoline-2-carboxamide)] | 9.1 | 20.7 |
| CC(C)[C@H]1C(=O)NC[C@@H](NC(=O)c2nc3ccccc3cc2O)C(=O)N2CCCC[C@H]2C(=O)NCC(=O)N(C)CC(=O)N(C)C2(CCC2)C(=O)NC[C@@H](NC(=O)c2nc3ccccc3cc2O)C(=O)N2CCCC[C@H]2C(=O)NCC(=O)N(C)CC(=O)N1C [Compound 121, N,N′-((7′R,19a'S,26′R,30'S,38a'S)-30′-isopropyl-12′,15′,31′,34′-tetramethyl-6′,10′,13′,16′,19′,25′,29′,32′,35′,38′-decaoxotetratriacontahydro-2′H,6′H,12′H-spiro[cyclobutane-1,11′-dipyrido[1,2-a:1′,2′-q][1,4,7,10,13,17,20,23,26,29]decaazacyclodotriacontine]-7′,26′-diyl)bis(3-hydroxyquinoline-2-carboxamide)] | 8.18 | 17.0 |
| CC(C)[C@H]1C(=O)NC[C@@H](NC(=O)c2nc3ccccc3cc2O)C(=O)N2CCCC[C@H]2C(=O)NCC(=O)N(C)CC(=O)N(C)[C@@H](c2ccccc2)C(=O)NC[C@@H](NC(=O)c2nc3ccccc3cc2O)C(=O)N2CCCC[C@H]2C(=O)NCC(=O)N(C)CC(=O)N1C [Compound 103, N,N′-((7R,11S,19aS,26R,30S,38aS)-11-isopropyl-12,15,31,34-tetramethyl-6,10,13,16,19,25,29,32,35,38-decaoxo-30-phenylhexatriacontahydro-2H,6H-dipyrido[1,2-a:1′,2′-q][1,4,7,10,13,17,20,23,26,29]decaazacyclodotriacontine-7,26-diyl)bis(3-hydroxyquinoline-2-carboxamide)] | 7.3 | 17.2 |
| CC(C)[C@H]1C(=O)NC[C@@H](NC(=O)c2nc3ccccc3cc2O)C(=O)N2CCCC[C@H]2C(=O)NCC(=O)N(C)CC(=O)N(C)C(C)(C)C(=O)NC[C@@H](NC(=O)c2nc3ccccc3cc2O)C(=O)N2CCCC[C@H]2C(=O)NCC(=O)N(C)CC(=O)N1C [Compound 115, N,N′-((7R,19aS,26R,30S,38aS)-30-isopropyl-11,11,12,15,31,34-hexamethyl-6,10,13,16,19,25,29,32,35,38-decaoxohexatriacontahydro-2H,6H-dipyrido[1,2-a:1′,2′-q][1,4,7,10,13,17,20,23,26,29]decaazacyclodotriacontine-7,26-diyl)bis(3-hydroxyquinoline-2-carboxamide)] | Inactive | 15.8 |
| CC[C@H](C)[C@H]1COC[C@@H](NC(=O)c2nc3ccccc3cc2O)C(=O)N2CCCC[C@H]2C(=O)NCC(=O)N(C)CC(=O)N(C)[C@@H](C(C)C)C(=O)NC[C@@H](NC(=O)c2nc3ccccc3cc2O)C(=O)N2CCCC[C@H]2C(=O)NCC(=O)N(C)CC(=O)N1C [Compound 197, N,N′-((7R,11S,19aS,26R,30S,38aS)-11-((S)-sec-butyl)-30-isopropyl-12,15,31,34-tetramethyl-6,13,16,19,25,29,32,35,38-nonaoxotetratriacontahydro-2H,6H,10H-dipyrido[2,1-b1: 2′,1′-l][1]oxa[4,7,10,13,17,20,23,26,29]nonaazacyclodotriacontine-7,26-diyl)bis(3-hydroxyquinoline-2-carboxamide)] | 9.4 | 19.4 |
| CN1CC(=O)N2CCCCC[C@H]2C(=O)NC[C@@H](NC(=O)c2nc3ccccc3cc2O)C(=O)N2CCCC[C@H]2C(=O)NCC(=O)N(C)CC(=O)N2CCCCC[C@H]2C(=O)NC[C@@H](NC(=O)c2nc3ccccc3cc2O)C(=O)N2CCCC[C@H]2C(=O)NCC1=O [Compound 157, N,N′-((7R,10aS,23aS,30R,33aS,46aS)-19,42-dimethyl-6,10,17,20,23,29,33,40,43,46-decaoxotetratetracontahydro-6H,29H-bis(azepino) [1,2-j:1′,2′-z]dipyrido[1,2-a:1′,2′-q][1,4,7,10,13,17,20,23,26,29]decaazacyclodotriacontine-7,30-diyl)bis(3-hydroxyquinoline-2-carboxamide)] | 7.1 | 15.8 |
| CC[C@H](C)[C@H]1C(=O)NC[C@@H](NC(=O)c2nc3ccc(Br)cc3cc2O)C(=O)N2CCCC[C@H]2C(=O)NCC(=O)N(C)CC(=O)N(C)[C@@H]([C@@H](C)CC)C(=O)NC[C@@H](NC(=O)c2nc3ccc(Br)cc3cc2O)C(=O)N2CCCC[C@H]2C(=O)NCC(=O)N(C)CC(=O)N1C [Compound 127, N,N′-((7R,11S,19aS,26R,30S,38aS)-11,30-di((S)-sec-butyl)-12,15,31,34-tetramethyl-6,10,13,16,19,25,29,32,35,38-decaoxohexatriacontahydro-2H,6H-dipyrido[1,2-a:1′,2′-q][1,4,7,10,13,17,20,23,26,29]decaazacyclodotriacontine-7,26-diyl)bis(6-bromo-3-hydroxyquinoline-2-carboxamide)] | 8.7 | 21.0 |
